From PMC8071534, “Discovery of Potential, Dual-Active Histamine H3 Receptor Ligands with Combined Antioxidant Properties” (Molecules, 2021)
Values joined by “and” are separate entries in the source; they are usually repeats but may differ in a detail not shown here. Equal values may be shown once. Read-outs that look alike come from different tables or passages of the source.

Assays:
[1] = DPPH free radical scavenging assay; conditions: for DPPH Assay (λ = 517 nm) Absorbance Decrease in 10^−4 mol/L Concentration [%] Mean ± SEM: 30 min incubation, vs solvent + reaction mixture blank
Experimental: (§1) In order to determine the possible antioxidant properties, selected compounds were tested in 2,2-diphenyl-1-picrylhydrazyl (DPPH) and ferric reducing antioxidant power (FRAP) assay with ascorbic acid as a reference compound (Table 2). For details, please refer to the Materials and Methods Section. Graphical representation of tests results can be found in Supplementary Material.
(§2) Antioxidant properties of compounds were tested in vitro in two different assays: the 2,2-diphenyl-1-picrylhydrazyl (DPPH) assay and the FeCl3 reduction activity assay (FRAP, ferric reducing antioxidant power). The tested compounds and ascorbic acid were dissolved in DMSO at the 10^−2 mol/L concentration, and in ethanol at the concentration of 10^−4 mol/L respectively. Moreover, 30% and 50% ascorbic acid activity cut-off for DPPH and FRAP assays respectively were set ad hoc.
DPPH is a molecule containing a stable free radical. The reduction of DPPH (purple) in ethanol solution takes place in the presence of a hydrogen-donating antioxidant due to the formation of the non-radical form of DPPH-H (yellow). This transformation results in color change from purple to yellow, which can be measured spectrophotometrically. Thus, the decrease in absorbance is proportional to the decrease in concentration of DPPH (free radical) and discoloration of reaction mixture indicates the scavenging of free radicals by a tested antioxidant.
In order to determine antioxidant capacity, 20 μL of the compound solutions (dissolved in 96% ethanol) was mixed with 180 μL of 0.3 mM ethanolic DPPH solution. The change in the absorbance was detected at 517 nm after 30 min of incubation. Results were expressed as percentage decrease in absorbance of the tested sample, compared to the sample containing the solvent + reaction mixture (blank with maximum concentration of the DPPH radical). L-ascorbic acid was used as a reference compound. Calculations were made using MS Excel, from the proportion where the change of absorbance in the vitamin C (vit. C) group was treated as 100%, according to Equation (1):(1) % activity of Vit.C=ΔAb×100/ΔAVit. C
Calculation of % Vit. C activity: ΔAb -the change in the absorbance of the test sample and ΔAVit. C is change in the absorbance of reference sample, or with vit. C.

[2] = FRAP (ferric reducing antioxidant power) assay; conditions: 10 min incubation, vs sample containing solvent
Experimental: as §1, §2
A modified method of Benzie and Strain [38] was adopted for the FRAP assay. The stock solutions included 300 mM acetate buffer (3.1 g of C2H3NaO2 × 3H2O and 16 mL of C2H4O2), pH 3.6, 10 mM TPTZ (2,4,6-tripyridyl-s-triazine) solution in 40 mM HCl, and 20 mM FeCl3 × 6H2O solution. The working solution was prepared by mixing 10 parts of acetate buffer, 1 part of TPTZ solution, and 1 part of FeCl3 × 6H2O solution. A portion of 180 μL of the FRAP solution was mixed with 20 μL of the tested compound solution and incubated at room temperature for 10 min in the dark. Readings of the color product (ferrous tripyridyl triazine complex) were then taken at 593 nm against ethanol. Results are expressed as an increase in absorbance of the test sample compared to a sample containing the solvent. L-ascorbic acid was used as reference compound.

[3] = target: T1, human recombinant histamine H3R stably expressed in HEK-293 cells (Homo sapiens, UniProt Q9Y5N1); experiment: [3H]Nα-methylhistamine hH3R displacement (radioligand depletion) binding assay; conditions: mean [95% confidence interval]
T1 construct: HEK-293 cells stably expressing the recombinant full length hH3R; expressed in transfected cells; crude membrane preparations
From the text: Unbound radioligand was removed by three washing steps with ice-cold water.

hH3R = conditions: reference ligands, Figure 1; cited from earlier work
hBuChE = conditions: Figure 1; cited from earlier work
rσ2R = conditions: Figure 1; cited from earlier work
rVAChT = conditions: Figure 1; cited from earlier work
hσ1R = conditions: Figure 1; cited from earlier work
rH3R = conditions: Figure 1; cited from earlier work
[4] = target: T1, human recombinant histamine H3R stably expressed in HEK-293 cells; set-up: method as in PMID 21237145, PMID 29960729; conditions: radioligand of the binding assay; read-out: KD of the radioligand at hH3R; cited from earlier work
[5] = hH3R Ki [nM] x¯ [CI 95%], [3H]Nα-methylhistamine displacement, HEK-293 membranes
[6] = [3H]Nα-methylhistamine displacement, HEK-293 membranes, read-out: hH3R Ki [nM] x¯ [CI 95%]
[7] = hH3R Ki [nM] x¯ [CI 95%], values obtained using 0.025% HCl in binding buffer

T1 sequence (Q9Y5N1 whole entry): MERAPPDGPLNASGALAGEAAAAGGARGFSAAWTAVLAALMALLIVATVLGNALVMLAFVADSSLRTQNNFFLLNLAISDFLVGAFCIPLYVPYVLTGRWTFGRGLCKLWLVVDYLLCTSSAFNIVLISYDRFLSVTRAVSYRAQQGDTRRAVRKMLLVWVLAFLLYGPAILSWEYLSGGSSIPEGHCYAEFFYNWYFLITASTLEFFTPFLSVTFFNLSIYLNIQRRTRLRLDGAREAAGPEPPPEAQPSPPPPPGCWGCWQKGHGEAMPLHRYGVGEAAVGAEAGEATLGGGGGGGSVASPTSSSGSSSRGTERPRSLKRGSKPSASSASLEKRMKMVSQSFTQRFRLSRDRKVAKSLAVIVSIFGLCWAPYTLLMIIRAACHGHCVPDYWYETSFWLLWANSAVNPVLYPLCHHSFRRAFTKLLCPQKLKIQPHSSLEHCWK

Row | Structure (SMILES) | DPPH Assay (λ = 517 nm) Absorbance Decrease in 10^−4 mol/L Concentration [%] Mean ± SEM [1] [%] | FRAP Assay (λ = 593 nm) Absorbance Increase in 10^−4 mol/L Concentration [%] Mean ± SEM [2] [%] | Ki [3, 5] [nM] | melting point [°C] | Ki [3, 6] [nM] | further results
1 | O=C1O[C@H]([C@@H](O)CO)C(O)=C1O [Ascorbic acid, L-ascorbic acid, reference compound] | 20.52 ± 0.51 | 344.20 ± 4.65 | – | – | – | –
2 | CC(=O)N1CCN(CCCOc2ccc(C(=O)c3ccccc3)cc2)CC1.O=C(O)C(=O)O [Compound 4, 1-(4-(3-(4-Benzoylphenoxy)propyl)piperazin-1-yl)ethan-1-one hydrogen oxalate] | – | – | 3650 | 136.8 to 140 | – | –
3 | CC(=O)N1CCN(CCCOc2ccc(C(=O)c3ccc(Cl)cc3)cc2)CC1 [Compound 5, 1-(4-(3-(4-(4-Chlorobenzoyl)phenoxy)propyl)piperazin-1-yl)ethan-1-one] | – | – | – | – | 1260 | –
4 | CC(=O)N1CCN(CCCOc2ccc(C(=O)c3ccc(F)cc3)cc2)CC1.O=C(O)C(=O)O [Compound 6, 1-(4-(3-(4-(4-Fluorobenzoyl)phenoxy)propyl)piperazin-1-yl)ethan-1-one hydrogen oxalate] | 8.82 ± 0.12 | 0.79 ± 0.39 | 1100 | 171.3 to 173.1 | – | –
5 | O=C(O)C(=O)O.O=C(c1ccccc1)c1ccc(OCCCN2CCN(C(=O)C3CC3)CC2)cc1 [Compound 7, (4-(3-(4-Benzoylphenoxy)propyl)piperazin-1-yl)(cyclopropyl)methanone hydrogen oxalate] | 6.23 ± 0.53 | 1.43 ± 0.32 | 1330 | 167.3 to 168.6 | – | –
6 | O=C(O)C(=O)O.O=C(c1ccc(Cl)cc1)c1ccc(OCCCN2CCN(C(=O)C3CC3)CC2)cc1 [Compound 8, (4-(3-(4-(4-Chlorobenzoyl)phenoxy)propyl)piperazin-1-yl)(cyclopropyl)methanone hydrogen oxalate] | 6.79 ± 0.51 | 0.48 ± 0.48 | > 1000 | 176.9 to 179.2 | – | –
7 | O=C(O)C(=O)O.O=C(c1ccc(F)cc1)c1ccc(OCCCN2CCN(C(=O)C3CC3)CC2)cc1 [Compound 9, (4-(3-(4-(Cyclopropanecarbonyl)piperazin-1-yl)propoxy)phenyl)(4-fluorophenyl)methanone hydrogen oxalate] | 7.70 ± 0.41 | 1.75 ± 0.22 | 1670 | 181.1 to 182.7 | – | –
8 | CC(=O)c1ccc(N2CCN(CCCOc3ccc(C(=O)c4ccccc4)cc3)CC2)cc1 [Compound 10, 1-(4-(4-(3-(4-Benzoylphenoxy)propyl)piperazin-1-yl)phenyl)ethan-1-one] | 2.44 ± 0.97 | 3.66 ± 0.59 | – | 148.4 to 151.4 | 633 | –
9 | CC(=O)c1ccc(N2CCN(CCCOc3ccc(C(=O)c4ccc(Cl)cc4)cc3)CC2)cc1 [Compound 11, 1-(4-(4-(3-(4-(4-Chlorobenzoyl)phenoxy)propyl)piperazin-1-yl)phenyl)ethan-1-one] | 3.33 ± 0.45 | 3.34 ± 0.22 | – | 180.6 to 183.4 | > 1000 | –
10 | CC(=O)c1ccc(N2CCN(CCCOc3ccc(C(=O)c4ccc(F)cc4)cc3)CC2)cc1 [Compound 12, 1-(4-(4-(3-(4-(4-Fluorobenzoyl)phenoxy)propyl)piperazin-1-yl)phenyl)ethan-1-one] | 4.42 ± 0.33 | 2.70 ± 1.15 | – | 162 to 163.6 | 1010 | –
11 | O=C(c1ccccc1)c1ccc(OCCCN2CCN(c3ccc([N+](=O)[O-])cc3)CC2)cc1 [Compound 13, (4-(3-(4-(4-Nitrophenyl)piperazin-1-yl)propoxy)phenyl)(phenyl)methanone] | – | – | – | 182.3 to 183.9 | > 1000 | –
12 | O=C(c1ccc(Cl)cc1)c1ccc(OCCCN2CCN(c3ccc([N+](=O)[O-])cc3)CC2)cc1 [Compound 14, (4-Chlorophenyl)(4-(3-(4-(4-nitrophenyl)piperazin-1-yl)propoxy)phenyl)methanone] | 6.31 ± 1.14 | 0.22 ± 0.16 | – | 154.5 to 155.8 | 622 | –
13 | O=C(c1ccc(F)cc1)c1ccc(OCCCN2CCN(c3ccc([N+](=O)[O-])cc3)CC2)cc1 [Compound 15, (4-Fluorophenyl)(4-(3-(4-(4-nitrophenyl)piperazin-1-yl)propoxy)phenyl)methanone] | – | – | – | 173.3 to 174.2 | 580 | –
14 | COc1cccc(N2CCN(CCCOc3ccc(C(=O)c4ccccc4)cc3)CC2)c1.O=C(O)C(=O)O [Compound 16, (4-(3-(4-(3-Methoxyphenyl)piperazin-1-yl)propoxy)phenyl)(phenyl)methanone hydrogen oxalate] | 12.37 ± 1.31 | 32.91 ± 0.81 | – | 143.6 to 146.1 | – | Ki [3, 7]: 592 nM; DPPH assay: % of ascorbic acid activity ([1]; compound 10^−4 mol/L vs ascorbic acid 10^−4 mol/L, calculated from Table 2): 60.28% and 50–60%
15 | COc1cccc(N2CCN(CCCOc3ccc(C(=O)c4ccc(Cl)cc4)cc3)CC2)c1.O=C(O)C(=O)O [Compound 17, (4-Chlorophenyl)(4-(3-(4-(3-methoxyphenyl)piperazin-1-yl)propoxy)phenyl)methanone hydrogen oxalate] | 4.88 ± 0.18 | 40.86 ± 0.98 | – | 100.2 to 102.4 | – | Ki [3, 7]: 518 nM and ~500 nM
16 | COc1cccc(N2CCN(CCCOc3ccc(C(=O)c4ccc(F)cc4)cc3)CC2)c1.O=C(O)C(=O)O [Compound 18, (4-Fluorophenyl)(4-(3-(4-(3-methoxyphenyl)piperazin-1-yl)propoxy)phenyl)methanone hydrogen oxalate] | 6.35 ± 0.55 | 29.73 ± 0.39 | 715 | 127.4 to 129.7 | – | –
17 | C#CCN(C)Cc1cc2cc(OCCCN3CCCCC3)ccc2n1C [Contilisant] | – | – | – | – | – | Ki (hH3R): 10.8 nM; IC50 (hBuChE): 1690 nM; Ki (rσ2R): 326 nM; Ki (rVAChT): 46.3 nM; Ki (hσ1R): 65.2 nM
18 | Cn1nc(N2CCC(OC(=O)N3CCN(C4CCC4)CC3)CC2)ccc1=O [LML134] | – | – | – | – | – | Ki (hH3R): 12 nM
19 | Clc1ccc(CCCOCCCN2CCCCC2)cc1 [Pitolisant, pitolisant] | – | – | – | – | – | Ki (rH3R): 17 nM
20 | CNCCc1cnc[nH]1 [[^3H]N^α-methylhistamine] | – | – | – | – | – | Kd [4]: 3.08 nM
